Reference: patent EP4494641A1, “SITAGLIPTIN IS A MALT1 INHIBITOR” (Cloudpharm Private Company, priority 2023, dated 2025)
Where two headings read alike, the source gives them in different places.

Tests used:
MALT1 = biological target: T1, MALT1 (Homo sapiens, UniProt Q9UDY8); experiment: EC50 determination for MALT1 inhibition (Trypan blue dye-exclusion in cell lines); type: cell-based
T1 construct: endogenous in cells
T1 sequence (Q9UDY8 1-824): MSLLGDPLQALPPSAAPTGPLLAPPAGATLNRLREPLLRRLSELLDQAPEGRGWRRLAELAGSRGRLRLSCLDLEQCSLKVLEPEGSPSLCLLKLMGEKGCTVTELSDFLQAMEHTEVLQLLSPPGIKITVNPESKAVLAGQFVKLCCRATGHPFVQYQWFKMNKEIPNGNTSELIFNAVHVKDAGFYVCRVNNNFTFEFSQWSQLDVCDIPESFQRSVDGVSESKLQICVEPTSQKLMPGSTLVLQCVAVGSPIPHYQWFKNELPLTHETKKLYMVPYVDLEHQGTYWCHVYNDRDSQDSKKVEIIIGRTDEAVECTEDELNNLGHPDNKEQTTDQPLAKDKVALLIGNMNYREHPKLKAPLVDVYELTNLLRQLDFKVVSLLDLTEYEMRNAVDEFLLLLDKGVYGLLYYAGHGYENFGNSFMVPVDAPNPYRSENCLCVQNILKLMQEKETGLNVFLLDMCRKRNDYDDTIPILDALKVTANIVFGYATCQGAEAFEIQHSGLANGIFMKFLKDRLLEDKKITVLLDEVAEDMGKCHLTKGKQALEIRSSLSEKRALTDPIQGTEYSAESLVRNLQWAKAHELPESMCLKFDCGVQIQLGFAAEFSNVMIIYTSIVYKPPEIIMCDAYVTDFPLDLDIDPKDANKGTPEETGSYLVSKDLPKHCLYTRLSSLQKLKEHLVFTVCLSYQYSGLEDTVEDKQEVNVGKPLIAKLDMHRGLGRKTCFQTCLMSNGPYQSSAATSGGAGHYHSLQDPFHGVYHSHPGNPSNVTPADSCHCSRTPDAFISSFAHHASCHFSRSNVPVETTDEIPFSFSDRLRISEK
Source text: The term is quite general, regardless of whether a test-compound enhances or diminishes the biological parameter in question. Its equation is a modified version of the IC50 equation, taking the ratio of the response (R) to the maximum response (Rmax): {R/Rmax} = {1/ [1+(E50/I)n]}. […] However, some test-compounds achieve only partial attenuation of a biological activity, even at high concentrations. In this case, IC50 values may be misleading about potency.
Cell lines were in log phase of growth, harvested and seeded in a 96-well plate at optimum plating density. Next, cells were incubated with and without test-compounds (0.1 µM - 1 µM - 10 µM) in the presence of positive, negative and untreated controls.

[1] = system: patient-derived glioblastoma cells (U3024); experiment: Spheroid disintegration in patient-derived glioblastoma cells over-expressing MALT1; type: cell-based, human; settings: 10 µM; U3024 spheroids compared to untreated spheroids
Source text: (§1) To measure the MALT1-dependent antiproliferative effect of sitagliptin on GMB cell growth and at the same time account for biases, U3024, an established and characterized GBM cell line derived from GBM patient surgical samples was chosen (https://www.hgcc.se/). U3024 is of mesenchymal subtype (person) and is characterized by MALT1 overexpression. Cell lines were maintained in serum-free neural stem cell media to retain tumour-initiating capacity as well as tumour specific phenotypes (Pollard et al, 2009). The U87MG glioma cell line served as a bona fide human glioblastoma cell line. Cell cultures were performed in 3D. […] Cell lines were in log phase of growth, harvested and seeded in a 96-well plate at optimum plating density. […] DMSO was <0.05%.

CYP2C19 = biological target: T2, CYP2C19 (Homo sapiens, UniProt P33261); experiment: CYP450 inhibition/induction, baculosomes, fluorescent substrate, kinetic model; type: in vitro ADME; settings: 1 µM; 20°C; t = 60 min
T2 construct: purchased Thermo Fisher Scientific (Waltham, MA, USA); host or cells: baculosomes
T2 sequence (P33261 whole entry): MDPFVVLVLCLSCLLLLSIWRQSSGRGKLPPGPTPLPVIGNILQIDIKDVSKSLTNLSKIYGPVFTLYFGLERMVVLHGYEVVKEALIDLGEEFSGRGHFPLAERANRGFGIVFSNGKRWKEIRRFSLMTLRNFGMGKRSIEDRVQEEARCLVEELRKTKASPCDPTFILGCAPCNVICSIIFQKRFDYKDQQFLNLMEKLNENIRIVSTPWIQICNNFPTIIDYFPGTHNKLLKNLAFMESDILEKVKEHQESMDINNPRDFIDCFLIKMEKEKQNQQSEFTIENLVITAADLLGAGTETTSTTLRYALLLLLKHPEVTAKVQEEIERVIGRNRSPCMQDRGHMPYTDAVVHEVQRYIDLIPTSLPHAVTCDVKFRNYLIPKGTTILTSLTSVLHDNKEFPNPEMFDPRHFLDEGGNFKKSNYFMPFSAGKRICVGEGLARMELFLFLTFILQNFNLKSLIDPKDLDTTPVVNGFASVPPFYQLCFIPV
Experimental: (§2) To determine the isozyme-specific CYP450-metabolism, baculosomes® expressing CYP1A2, CYP2A6, CYP2B6, CYP2C9, CYP2C19, CYP2D6 and CYP3A4 human CYP450 isoenzymes were purchased from Thermo Fisher Scientific (Waltham, MA, USA). All reagents were handled and prepared according to the manufacturer's protocol. Sitagliptin was tested at 1 µM. Enzymatic activity in the presence of sitagliptin was assessed based on the kinetic model for CYP1A2, CYP2A6, CYP2B6, CYP2C9, CYP2C19, CYP2D6 and CYP3A4 isoforms. Reactions took place in triplicates at 20°C. Glucose-6-phosphate at 333 mM and glucose-6-phosphate-dehydrogenase at 30 U/mL in 100 mM potassium phosphate, pH 8.0 (regeneration system) converted NADP+ (10 mM in 100 mM potassium phosphate, pH 8.0) into NADPH to initiate the CYP450 reaction. Upon the addition of the fluorescent substrate, immediately (<2 min), the fluorescence signal was monitored over time at suitable excitation and emission wavelengths by Lionheart FX (BioTek, Winooski, VT, USA). CYP450 inhibition (%) was determined based on the reaction rates (fluorescence intensity changes per unit time).

CYP2A6 = biological target: T3, CYP2A6 (Homo sapiens, UniProt P11509); experiment: as above; type: in vitro ADME; settings: 1 µM; 20°C; t = 60 min
T3 construct: purchased Thermo Fisher Scientific (Waltham, MA, USA); host or cells: baculosomes
T3 sequence (P11509 1-494): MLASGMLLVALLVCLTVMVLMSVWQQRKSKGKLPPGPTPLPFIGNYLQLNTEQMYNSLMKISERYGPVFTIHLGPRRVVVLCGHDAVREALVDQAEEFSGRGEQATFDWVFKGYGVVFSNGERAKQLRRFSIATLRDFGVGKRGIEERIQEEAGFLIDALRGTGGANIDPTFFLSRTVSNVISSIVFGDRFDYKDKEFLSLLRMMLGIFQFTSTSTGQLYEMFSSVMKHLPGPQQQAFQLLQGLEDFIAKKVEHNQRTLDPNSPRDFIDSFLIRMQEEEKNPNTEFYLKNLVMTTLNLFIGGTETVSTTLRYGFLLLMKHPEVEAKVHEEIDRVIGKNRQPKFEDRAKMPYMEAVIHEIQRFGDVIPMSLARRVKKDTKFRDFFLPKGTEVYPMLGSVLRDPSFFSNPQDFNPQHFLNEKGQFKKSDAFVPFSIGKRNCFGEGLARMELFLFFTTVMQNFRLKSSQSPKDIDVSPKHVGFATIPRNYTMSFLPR
Experimental: as §2

CYP2D6 = biological target: T4, CYP2D6 (Homo sapiens, UniProt P10635); experiment: as above; type: in vitro ADME; settings: 1 µM; 20°C; t = 60 min
T4 construct: purchased Thermo Fisher Scientific (Waltham, MA, USA); host or cells: baculosomes
T4 sequence (P10635 whole entry): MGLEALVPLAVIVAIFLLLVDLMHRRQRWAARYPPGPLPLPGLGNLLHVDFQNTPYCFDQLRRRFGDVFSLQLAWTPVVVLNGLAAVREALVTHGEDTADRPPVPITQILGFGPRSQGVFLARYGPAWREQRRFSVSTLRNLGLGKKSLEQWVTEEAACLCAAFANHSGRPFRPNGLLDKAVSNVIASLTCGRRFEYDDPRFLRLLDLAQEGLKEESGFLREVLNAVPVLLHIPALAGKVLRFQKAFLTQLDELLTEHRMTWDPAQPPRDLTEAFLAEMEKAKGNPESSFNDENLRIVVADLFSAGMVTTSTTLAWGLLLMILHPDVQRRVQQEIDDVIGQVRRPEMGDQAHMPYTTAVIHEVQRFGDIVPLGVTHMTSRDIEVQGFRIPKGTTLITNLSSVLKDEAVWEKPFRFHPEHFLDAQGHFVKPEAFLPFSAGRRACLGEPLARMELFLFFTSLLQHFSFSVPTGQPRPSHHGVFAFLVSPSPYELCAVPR
Experimental: as §2

CYP3A4 = biological target: T5, CYP3A4 (Homo sapiens, UniProt P08684); experiment: as above; type: in vitro ADME; settings: 1 µM; 20°C; t = 60 min
T5 construct: purchased Thermo Fisher Scientific (Waltham, MA, USA); host or cells: baculosomes
T5 sequence (P08684 whole entry): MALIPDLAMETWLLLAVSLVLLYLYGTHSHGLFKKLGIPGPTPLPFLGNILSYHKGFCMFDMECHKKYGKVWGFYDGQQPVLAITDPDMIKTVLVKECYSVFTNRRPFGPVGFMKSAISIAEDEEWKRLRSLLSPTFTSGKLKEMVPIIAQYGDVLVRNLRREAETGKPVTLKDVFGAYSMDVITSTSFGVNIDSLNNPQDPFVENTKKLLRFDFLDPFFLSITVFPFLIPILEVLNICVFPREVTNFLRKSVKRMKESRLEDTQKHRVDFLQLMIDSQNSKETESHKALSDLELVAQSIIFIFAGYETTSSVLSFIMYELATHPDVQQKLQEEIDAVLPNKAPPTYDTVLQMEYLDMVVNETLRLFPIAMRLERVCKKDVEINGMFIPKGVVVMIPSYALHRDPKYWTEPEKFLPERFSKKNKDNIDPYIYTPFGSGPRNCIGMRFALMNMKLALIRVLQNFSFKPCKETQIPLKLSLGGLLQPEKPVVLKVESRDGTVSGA
Experimental: as §2

CYP2B6 = biological target: T6, CYP2B6 (Homo sapiens, UniProt P20813); experiment: as above; type: in vitro ADME; settings: 1 µM; 20°C; t = 60 min
T6 construct: purchased Thermo Fisher Scientific (Waltham, MA, USA); host or cells: baculosomes
T6 sequence (P20813 1-491): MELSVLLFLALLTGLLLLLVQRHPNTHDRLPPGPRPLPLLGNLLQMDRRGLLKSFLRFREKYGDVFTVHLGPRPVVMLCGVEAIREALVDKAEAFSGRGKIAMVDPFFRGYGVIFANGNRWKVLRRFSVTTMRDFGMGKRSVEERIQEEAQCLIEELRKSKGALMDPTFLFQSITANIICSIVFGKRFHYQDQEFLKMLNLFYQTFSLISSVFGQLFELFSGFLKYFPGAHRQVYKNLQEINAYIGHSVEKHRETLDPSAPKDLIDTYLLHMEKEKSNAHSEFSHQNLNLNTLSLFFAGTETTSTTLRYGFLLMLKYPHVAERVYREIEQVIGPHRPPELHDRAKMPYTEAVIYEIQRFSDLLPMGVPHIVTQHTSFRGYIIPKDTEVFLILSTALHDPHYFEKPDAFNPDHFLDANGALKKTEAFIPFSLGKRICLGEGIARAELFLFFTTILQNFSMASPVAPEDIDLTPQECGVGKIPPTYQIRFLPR
Experimental: as §2

CYP2C9 = biological target: T7, CYP2C9 (Homo sapiens, UniProt P11712); experiment: as above; type: in vitro ADME; settings: 1 µM; 20°C; t = 60 min
T7 construct: purchased Thermo Fisher Scientific (Waltham, MA, USA); host or cells: baculosomes
T7 sequence (P11712 whole entry): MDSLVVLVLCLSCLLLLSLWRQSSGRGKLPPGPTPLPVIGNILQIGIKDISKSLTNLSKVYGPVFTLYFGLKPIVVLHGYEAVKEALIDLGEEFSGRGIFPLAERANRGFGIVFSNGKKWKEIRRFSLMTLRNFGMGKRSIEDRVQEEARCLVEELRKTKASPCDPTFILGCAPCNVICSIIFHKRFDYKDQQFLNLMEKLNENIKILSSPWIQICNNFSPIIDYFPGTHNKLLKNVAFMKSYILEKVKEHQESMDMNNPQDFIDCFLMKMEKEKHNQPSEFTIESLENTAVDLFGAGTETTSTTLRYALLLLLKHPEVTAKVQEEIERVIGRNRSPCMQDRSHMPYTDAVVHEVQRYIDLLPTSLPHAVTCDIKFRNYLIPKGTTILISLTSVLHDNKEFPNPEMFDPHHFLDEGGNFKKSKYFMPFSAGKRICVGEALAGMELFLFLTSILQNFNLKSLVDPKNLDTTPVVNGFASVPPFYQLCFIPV
Experimental: as §2

CYP1A2 = CYP1A2 (Homo sapiens, UniProt P05177); experiment: as above; type: in vitro ADME; settings: 1 µM; 20°C; t = 60 min
CYP1A2, sequence (P05177 whole entry): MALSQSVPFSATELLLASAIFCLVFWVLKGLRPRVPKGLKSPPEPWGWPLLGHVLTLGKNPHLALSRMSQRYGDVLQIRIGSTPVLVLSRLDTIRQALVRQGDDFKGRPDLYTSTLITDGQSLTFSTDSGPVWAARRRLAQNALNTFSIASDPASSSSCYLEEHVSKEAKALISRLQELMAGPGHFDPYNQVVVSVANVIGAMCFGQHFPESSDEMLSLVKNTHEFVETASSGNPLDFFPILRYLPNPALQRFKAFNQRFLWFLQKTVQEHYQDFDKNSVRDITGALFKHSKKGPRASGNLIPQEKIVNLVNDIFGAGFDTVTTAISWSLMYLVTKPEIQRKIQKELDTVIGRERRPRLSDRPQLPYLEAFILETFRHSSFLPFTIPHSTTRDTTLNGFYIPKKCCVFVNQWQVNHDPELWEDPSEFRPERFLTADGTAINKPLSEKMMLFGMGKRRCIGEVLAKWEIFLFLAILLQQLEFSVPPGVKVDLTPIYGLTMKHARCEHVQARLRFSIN
Experimental: as §2

[2] = biological target: T8, recombinant full-length human MALT1 (Homo sapiens, UniProt Q9UDY8); experiment: Fluorogenic MALT1 proteolytic activity assay with Ac-LRSR-AMC substrate; type: biochemical; settings: read-out: percent inhibition of MALT1 proteolytic activity
T8 construct: recombinant full-length human MALT1
T8 sequence (Q9UDY8 1-824): T1 sequence (Q9UDY8 1-824)
Experimental: Fluorogenic reactions were monitored in the presence of recombinant full-length human MALT1 and Ac-LRSR-AMC (Ac-Leu-Arg-Ser-Arg-7-amino-4-methylcoumarin) - SEQ ID NO:1 - with excitation/emission wavelengths of 360/460 nm in black, low binding microtiter plates using a microplate reader. Cleavage of the Ac-LRSR-AMC substrate by MALT1 results in the release of AMC and a fluorescent signal. […] The final percent inhibition was calculated with the formula: {[fluorescence_test compound(T2-T1) - fluorescence_negative control (T2-T1)]/ [fluorescence_positive control (T2-T1) - fluorescence_negative control (T2-T1)]} × 100. […] A so-called buffer only test-condition (i.e. MALT1+Ac-LRSR-AMC substrate+buffer) served as negative control. […] MI-2 (C19H17Cl3N4O3; 2-chloro-N-[4-[5-(3,4-dichlorophenyl)-3-(2-methoxyethoxy)-1,2,4-triazol-1-yl] phenyl] acetamide) is an orthosteric and irreversible MALT1 inhibitor (Fontán et al, 2012).

[3] = system: Glioblastoma multiforme (GBM) cell growth (U3024, U87MG); experiment: Antiproliferative effect on GBM cell growth, 3D cell cultures; type: cell-based, human; settings: tested at 0.1 µM, 1 µM, and 10 µM at t=48h, 3D cultures
Source text: as §1, with “<0.05%. […] The results are mean ± standard deviation of three independent experiments done in triplicates. […] Three independent experiments were performed in triplicates.” for “<0.05%.”

Structure (SMILES) | EC50 (MALT1) [µM] | inhibition of MALT1 resulting in spheroid disintegration [1] | EC50 (MALT1; 0.1 µM - 1 µM - 10 µM, Trypan blue dye-exclusion at t=48h, mean of three independent experiments in triplicates, read-out: EC50 values) [µM] | CYP2C19 inhibition / induction (CYP2C19) | CYP2A6 inhibition / induction (CYP2A6) | CYP2D6 inhibition / induction (CYP2D6) | CYP3A4 inhibition / induction (CYP3A4) | CYP2B6 inhibition / induction (CYP2B6) | CYP2C9 inhibition / induction (CYP2C9) | CYP1A2 inhibition / induction (CYP1A2) | inhibition at 10 µM [2] [%] | antiproliferative effect on GBM cell growth [3]
COCCOc1nc(-c2ccc(Cl)c(Cl)c2)n(-c2ccc(NC(=O)CCl)cc2)n1 [MI-2, 2-chloro-N-[4-[5-(3,4-dichlorophenyl)-3-(2-methoxyethoxy)-1,2,4-triazol-1-yl]phenyl] acetamide] | 1 |  |  |  |  |  |  |  |  |  |  | 
N[C@@H](CC(=O)N1CCn2c(nnc2C(F)(F)F)C1)Cc1cc(F)c(F)cc1F [Sitagliptin, (3R)-3-amino-1-[3-(trifluoromethyl)-6,8-dihydro-5H-[1,2,4]triazolo[4,3-a]pyrazin-7-yl]-4-(2,4,5-trifluorophenyl)butan-1-one] |  | spheroid disintegration | 1.3 | does not inhibit nor induces | does not inhibit nor induces | does not inhibit nor induces | does not inhibit nor induces | does not inhibit nor induces | does not inhibit nor induces | does not inhibit nor induces | ≥ 40 | strong antiproliferative effect
